The test system of data set [1] is MATIN. As to the kind of experiment: Herbicidal post-emergence action (Table B6). It counts as in vivo, Matricaria inodora. The settings on record: application rate 320 g/ha; rated visually after about 3 weeks. In short, it runs like this: (§1)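 Greenhouse pot test in sandy loam; weeds sown, treated post-emergence at one-leaf stage 2–3 weeks after sowing. Activity rated visually about 3 weeks later versus untreated controls, 100% = plants dead, 0% = like controls.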

Data set [2] concerns ECHCG. Nature of the data set: Herbicidal pre-emergence action, section C (Table C6). The format is in vivo, Echinochloa crus-galli. The settings on record: application rate 80 g/ha; visual grading after ca. 3 weeks.
The test system of data set [3] is SETVI. As to the kind of experiment: Herbicidal pre-emergence action, section C (Table C10). The format is in vivo, Setaria viridis. To be noted: application rate 320 g/ha; visual grading after ca. 3 weeks.
The subject of data set [4] is VERPE. Nature of the data set: Herbicidal pre-emergence action, section C (Table C11). It counts as in vivo, Veronica persica. To be noted: application rate 80 g/ha; visual grading after ca. 3 weeks.
Excerpt: Seeds of mono- and dicotyledonous weed plants and crop plants were sown, in plastic or organic planting pots, in sandy loam and covered with soil. The compounds according to the invention, formulated in the form of wettable powders (WP) or as emulsifiable concentrates (EC), were applied to the surface of the covering soil as aqueous suspension or emulsion, with the addition of 0.5% of an additive, at an application rate of 600 1 of water/ha (converted). Following treatment, the pots were placed in a greenhouse and kept under optimum growth conditions for the test plants.
The test system of data set [5] is POAAN. Nature of the data set: Herbicidal post-emergence action (Table B7). It counts as in vivo, Poa annua. The gist of the method:
as §1

The next data set concerns ORYZA. As to the kind of experiment: Post-emergence effects on crop plants (Table F3). The format is in vivo, Oryza sativa. The settings on record: application rate 320 g/ha, crop plant ORYZA. An excerpt: (§2) 2 to 3 weeks after sowing, the test plants were sprayed in the single-leaf stage.
The test system of data set [6] is MATIN. As to the kind of experiment: Herbicidal pre-emergence action (Table A4). The format is in vivo, Matricaria inodora. To be noted: application rate 1280 g/ha; visual grading after ca. 3 weeks. In short, it runs like this: (§3)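 One monocotyledonous and one dicotyledonous weed species shared each pot. Seeds were sown in sandy loam and covered over with soil.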

The test system of data set [7] is BRSNW. As to the kind of experiment: Pre-emergence effects on crop plants (Table D5). The format is in vivo, Brassica napus. To be noted: crop plant; application rate 80 g/ha; visual grading after ca. 3 weeks.
The subject of data set [8] is AMARE. Nature of the data set: Herbicidal post-emergence action (Table B11). The format is in vivo, Amaranthus retroflexus. To be noted: application rate 1280 g/ha. The gist of the method:
as §1

The test system of data set [9] is SETVI. As to the kind of experiment: Herbicidal pre-emergence action (Table A5). The format is in vivo, Setaria viridis. The settings on record: visual grading after ca. 3 weeks. In short, it runs like this:
as §3

The subject of data set [10] is VERPE. Nature of the data set: Herbicidal post-emergence action, section E (Table E9). The format is in vivo, Veronica persica. The settings on record: application rate 320 g/ha; assessed visually after ca. 3 weeks.
Excerpt: as §2

In data set [11] the test system is VIOTR. Nature of the data set: Herbicidal pre-emergence action, section C (Table C12). The format is in vivo, Viola tricolor. To be noted: application rate 320 g/ha; visual grading after ca. 3 weeks.
Data set [12] deals with LOLRI. As to the kind of experiment: Herbicidal pre-emergence action, section C (Table C7). It counts as in vivo, Lolium rigidum. The settings on record: application rate 320 g/ha; visual grading after ca. 3 weeks.
The test system of data set [13] is VIOTR. As to the kind of experiment: Herbicidal post-emergence action, section E (Table E10). It counts as in vivo, Viola tricolor. To be noted: application rate 320 g/ha; assessed visually after ca. 3 weeks.
Excerpt: as §2

In the next data set the test system is DIGSA. Nature of the data set: Herbicidal pre-emergence action, section C (Table C5). The settings on record: application rate 80 g/ha; visual grading after ca. 3 weeks. It counts as in vivo, Digitaria sanguinalis.
Data set [14] concerns STEME. As to the kind of experiment: Herbicidal post-emergence action (Table B9). It counts as in vivo, Stellaria media. The settings on record: application rate 1280 g/ha. On the procedure: Seeds of mono- and dicotyledonous weed plants were placed in plastic pots in sandy loam soil (doubly sown with in each case one species of mono- or dicotyledonous weed plants per pot), covered with soil and cultivated in a greenhouse under controlled growth conditions. 2 to 3 weeks after sowing, the test plants were treated at the one-leaf stage. […] After the test plants had been kept in the greenhouse under optimum growth conditions for about 3 weeks, the activity of the preparations was rated visually in comparison to untreated controls. For example, 100% activity = the plants have died, 0% activity = like control plants.

The subject of a further data set is ABUTH. Nature of the data set: Herbicidal post-emergence action (Table B1). It counts as in vivo, Abutilon theophrasti. To be noted: application rate 1280 g/ha; treated at one-leaf stage; rated visually after about 3 weeks vs untreated controls (100% = plants have died, 0% = like control plants). The gist of the method:
as §1

For data set [15], the system named is ECHCG. Nature of the data set: Herbicidal post-emergence action, section E (Table E5). It counts as in vivo, Echinochloa crus-galli. The settings on record: application rate 320 g/ha; assessed visually after ca. 3 weeks.
Excerpt: as §2

The test system of data set [16] is ZEAMX. As to the kind of experiment: Post-emergence effects on crop plants (Table F1). The format is in vivo, Zea mays. To be noted: application rate 320 g/ha, crop plant ZEAMX.
Excerpt: as §2

Data set [17] has as its system LOLRI. Nature of the data set: Herbicidal pre-emergence action (Table A3). The format is in vivo, Lolium rigidum. The settings on record: visual grading after ca. 3 weeks. The gist of the method: as §3
Data set [18] deals with STEME. As to the kind of experiment: Herbicidal pre-emergence action (Table A6). The format is in vivo, Stellaria media. To be noted: visual grading after ca. 3 weeks. The gist of the method:
as §3

Data set [19] deals with TRZAS. Nature of the data set: Post-emergence effects on crop plants (Table F2). The format is in vivo, Triticum aestivum. The settings on record: application rate 320 g/ha, crop plant TRZAS.
Excerpt: as §2

In data set [20] the test system is TRZAS. As to the kind of experiment: Pre-emergence effects on crop plants (Table D2). The format is in vivo, Triticum aestivum. To be noted: crop plant; application rate 80 g/ha; visual grading after ca. 3 weeks.
In data set [21] the test system is ALOMY. As to the kind of experiment: Herbicidal pre-emergence action, section C (Table C2). To be noted: application rate 80 g/ha; visual grading after ca. 3 weeks. The format is in vivo, Alopecurus myosuroides.
In data set [22] the test system is ECHCG. As to the kind of experiment: Herbicidal pre-emergence action (Table A2). The format is in vivo, Echinochloa crus-galli. To be noted: application rate 1280 g/ha; visual grading after ca. 3 weeks. The gist of the method: as §3
In data set [23] the test system is BRSNW. Nature of the data set: Post-emergence effects on crop plants (Table F5). The format is in vivo, Brassica napus. To be noted: application rate 320 g/ha, crop plant BRSNW.
Excerpt: as §2

Data set [24] concerns AMARE. Nature of the data set: Herbicidal pre-emergence action (Table A8). It counts as in vivo, Amaranthus retroflexus. The settings on record: application rate 1280 g/ha; visual grading after ca. 3 weeks vs untreated controls (100% = plants have died off, 0% = as control plants). In short, it runs like this: as §3
Data set [25] deals with ALOMY. Nature of the data set: Herbicidal post-emergence action, section E (Table E2). It counts as in vivo, Alopecurus myosuroides. The settings on record: application rate 320 g/ha; assessed visually after ca. 3 weeks.
Excerpt: as §2

The subject of data set [26] is ZEAMX. Nature of the data set: Pre-emergence effects on crop plants (Table D1). It counts as in vivo, Zea mays. The settings on record: crop plant; application rate 320 g/ha; visual grading after ca. 3 weeks.
Another data set concerns GLXMA. As to the kind of experiment: Pre-emergence effects on crop plants (Table D4). It counts as in vivo, Glycine max. The settings on record: crop plant; application rate 320 g/ha; visual grading after ca. 3 weeks.
In data set [27] the test system is POAAN. Nature of the data set: Herbicidal pre-emergence action (Table A7). To be noted: visual grading after ca. 3 weeks. It counts as in vivo, Poa annua. In short, it runs like this:
as §3

The subject of data set [28] is ECHCG. Nature of the data set: Herbicidal post-emergence action (Table B3). The format is in vivo, Echinochloa crus-galli. The settings on record: Echinochloa crus-galli, post-emergence, 504 h; application rate 1280 g/ha; rated visually after about 3 weeks; read-out: post-emergence activity against ECHCG. The gist of the method:
as §1

For data set [29], the system named is VERPE. As to the kind of experiment: Herbicidal post-emergence action (Table B10). The format is in vivo, Veronica persica. To be noted: application rate 1280 g/ha. The gist of the method: as §1
The subject of data set [30] is SETVI. Nature of the data set: Herbicidal post-emergence action (Table B8). It counts as in vivo, Setaria viridis. The settings on record: application rate 1280 g/ha. In short, it runs like this: as §1
Another data set deals with KCHSC. As to the kind of experiment: Herbicidal pre-emergence action (Table A10). The format is in vivo, Kochia scoparia. The settings on record: application rate 1280 g/ha; visual grading after ca. 3 weeks. In short, it runs like this: as §3

Excerpt for GLXMA: Seeds of mono- and dicotyledonous weed plants and crop plants were sown, in plastic or organic planting pots, in sandy loam and covered with soil. The compounds according to the invention, formulated in the form of wettable powders (WP) or as emulsifiable concentrates (EC), were applied to the surface of the covering soil as aqueous suspension or emulsion, with the addition of 0.5% of an additive, at an application rate of 600 1 of water/ha (converted).
Following treatment, the pots were placed in a greenhouse and kept under optimum growth conditions for the test plants.

Regarding `O=C1N(Cc2c(F)ccc(F)c2F)CCCC12CCCN(Cc1c(F)ccc(F)c1F)C2=O` (racemic) [I-013], the “post-emergence activity against MATIN” value in the data set with MATIN [1] is reported as 90%. Besides, the “pre-emergence activity against ECHCG” value in the data set with ECHCG [2] and in the data set with ECHCG [22] was 100% in each case. Also, the “pre-emergence activity against SETVI” value with SETVI [3] was 90%; with SETVI [9] (application rate 320 g/ha), 100%. In the data set with VERPE [4], the “pre-emergence activity against VERPE” value was 90%. In addition, in the data set with POAAN [5] (application rate 320 g/ha), the “post-emergence activity against POAAN” value came out at 90%. The “post-emergence activity against ORYZA” value in the data set on ORYZA turned out to be 0%. Further, in the data set on MATIN [6], the “pre-emergence activity against MATIN” value worked out at 90%. Moreover, the “pre-emergence activity against BRSNW” value in the data set with BRSNW [7] is 10%. In the data set with AMARE [8], the “post-emergence activity against AMARE” value is recorded as 90%. For the same molecule, the “post-emergence activity against VERPE” value in the data set on VERPE [10] amounted to 80%. Besides, in the data set with VIOTR [11], the “pre-emergence activity against VIOTR” value is listed as 80%. Further, the “pre-emergence activity against LOLRI” value in the data set on LOLRI [12] is listed as 90%; in the data set with LOLRI [17] (application rate 320 g/ha) it was 100%. The “post-emergence activity against VIOTR” value with VIOTR [13] came to 90%. The “pre-emergence activity against DIGSA” value with DIGSA came to 100%. In addition, the “post-emergence activity against STEME” value in the data set on STEME [14] amounted to 90%. Further, the “post-emergence activity against ABUTH” value in the data set on ABUTH was found to be 90%. In the data set on ECHCG [15], the “post-emergence activity against ECHCG” value was 80%. In the data set on ZEAMX [16], the “post-emergence activity against ZEAMX” value is 10%. The “pre-emergence activity against STEME” value in the data set with STEME [18] (application rate 320 g/ha) stood at 100%. Moreover, the “post-emergence activity against TRZAS” value in the data set with TRZAS [19] was 0%. In addition, the “pre-emergence activity against TRZAS” value in the data set on TRZAS [20] came out at 20%. The “pre-emergence activity against ALOMY” value with ALOMY [21] came to 80%. Also, the “post-emergence activity against BRSNW” value in the data set with BRSNW [23] amounted to 0%. Further, the “pre-emergence activity against AMARE” value in the data set on AMARE [24] is recorded as 90%. In addition, the “post-emergence activity against ALOMY” value with ALOMY [25] is 80%. In addition, in the data set with ZEAMX [26], the “pre-emergence activity against ZEAMX” value was 10%. In addition, the “pre-emergence activity against GLXMA” value in the data set on GLXMA was determined as 0%. Also, in the data set with POAAN [27] (application rate 320 g/ha), the “pre-emergence activity against POAAN” value amounted to 100%.

On to `N#Cc1ccc(CN2CCCC3(CCCN(Cc4ccc(C#N)s4)C3=O)C2=O)s1` (single isomer, unassigned; (-)) [I-208, (-)-2,8-bis[(5-cyanothiophen-2-yl)methyl]-2,8-diazaspiro[5.5]undecane-1,7-dione], for which, in the data set with POAAN [5] (application rate 1280 g/ha), the “post-emergence activity against POAAN” value is on record as 90%. Further, the pest or weed control at 1280 g/ha in the data set with ECHCG [28] came to 90%; in the data set on LOLRI [17] (Lolium rigidum, pre-emergence, 504 h, application rate 1280 g/ha, read-out: pre-emergence activity against LOLRI), 90%; in the data set on POAAN [27] (Poa annua, pre-emergence, 504 h, application rate 1280 g/ha, read-out: pre-emergence activity against POAAN), 100%. For the same molecule, in the data set on VERPE [29], the “post-emergence activity against VERPE” value is reported as 90%. Also, the “post-emergence activity against AMARE” value with AMARE [8] was determined as 90%. Moreover, the “pre-emergence activity against SETVI” value with SETVI [9] (application rate 1280 g/ha) was determined as 90%. The “post-emergence activity against SETVI” value in the data set with SETVI [30] is given as 90%. In addition, in the data set with KCHSC, the “pre-emergence activity against KCHSC” value came out at 90%. The “post-emergence activity against STEME” value in the data set on STEME [14] was determined as 90%. The “post-emergence activity against ABUTH” value with ABUTH came to 90%. The “pre-emergence activity against STEME” value in the data set on STEME [18] (application rate 1280 g/ha) turned out to be 100%. For the same molecule, the “pre-emergence activity against AMARE” value in the data set with AMARE [24] was 100%.

Source of the values: patent EP4273147A1, “SUBSTITUTED SPIROLACTAMS, SALTS THEREOF AND THEIR USE AS HERBICIDALLY ACTIVE SUBSTANCES” (Bayer Aktiengesellschaft, priority 2022, dated 2023).
